Data published in ChEMBL document CHEMBL3997783, “Synthesis and anti-acute myeloid leukemia activity of C-14 modified parthenolide derivatives” (Eur J Med Chem, 2017).

Tests used:
[1] = tested on: KG-1a; test: Cytotoxicity against human KG1a cells assessed as decrease in cell proliferation after 48 hrs by MTT assay; assay type: functional, cell-based
[2] = tested on: HL-60; test: Cytotoxicity against human HL60 cells assessed as decrease in cell proliferation after 48 hrs by MTT assay; assay type: functional, cell-based; conditions: HL-60, 48 h
[3] = tested on: KG-1a; test: Induction of apoptosis in human KG1a cells assessed as viable cells at 10 uM after 16 hrs by annexin V-FITC/propidium iodide staining-based flow cytometric method (reference value: 98.7%); assay type: functional; conditions: read-out: Activity
[4] = tested on: KG-1a; test: Induction of apoptosis in human KG1a cells assessed as necrotic cells at 20 uM after 16 hrs by annexin V-FITC/propidium iodide staining-based flow cytometric method (reference value: 0.170%); assay type: functional
[5] = tested on: KG-1a; test: Induction of apoptosis in human KG1a cells assessed as necrotic cells at 10 uM after 16 hrs by annexin V-FITC/propidium iodide staining-based flow cytometric method (reference value: 0.170%); assay type: functional
[6] = tested on: KG-1a; test: Induction of apoptosis in human KG1a cells assessed as early apoptotic cells at 10 uM after 16 hrs by annexin V-FITC/propidium iodide staining-based flow cytometric method (reference value: 0.113%); assay type: functional
[7] = tested on: KG-1a; test: Induction of apoptosis in human KG1a cells assessed as late apoptotic cells at 20 uM after 16 hrs by annexin V-FITC/propidium iodide staining-based flow cytometric method (reference value: 1.01%); assay type: functional
[8] = tested on: KG-1a; test: Induction of apoptosis in human KG1a cells assessed as early apoptotic cells at 20 uM after 16 hrs by annexin V-FITC/propidium iodide staining-based flow cytometric method (reference value: 0.113%); assay type: functional
[9] = tested on: KG-1a; test: Induction of apoptosis in human KG1a cells assessed as viable cells at 20 uM after 16 hrs by annexin V-FITC/propidium iodide staining-based flow cytometric method (reference value: 98.7%); assay type: functional; conditions: read-out: Activity
[10] = tested on: KG-1a; test: Induction of apoptosis in human KG1a cells assessed as late apoptotic cells at 10 uM after 16 hrs by annexin V-FITC/propidium iodide staining-based flow cytometric method (reference value: 1.01%); assay type: functional
[11] = Selectivity ratio of IC50 for human KG1a cells to IC50 for human HL60 cells; assay type: functional

SMILES | IC50 [1] | IC50 [2] | further results
C=C1C(=O)O[C@H]2[C@H]1CC/C(CO)=C\CC[C@@]1(C)O[C@@H]21 | 6.8 µM | 10.3 µM | –
C=C1C(=O)O[C@H]2[C@H]1CC/C(C(=O)OCc1ccccc1)=C\CC[C@@]1(C)O[C@@H]21 | 3.3 µM | 2.2 µM | –
C=C1C(=O)O[C@H]2[C@H]1CC/C(COC)=C\CC[C@@]1(C)O[C@@H]21 | 2.4 µM | 7.7 µM | –
C=C1C(=O)O[C@H]2[C@H]1CC/C(COC(=O)c1cccs1)=C\CC[C@@]1(C)O[C@@H]21 | 3.9 µM | 1.7 µM | –
C=C1C(=O)O[C@H]2[C@H]1CC/C(C(=O)O)=C\CC[C@@]1(C)O[C@@H]21 | > 50 µM | > 50 µM | –
C=C1C(=O)O[C@H]2[C@H]1CC/C(C(=O)N1CCOCC1)=C\CC[C@@]1(C)O[C@@H]21 | 29.9 µM | 3.9 µM | –
C=C1C(=O)O[C@H]2[C@H]1CC/C(C(=O)N1CCCCC1)=C\CC[C@@]1(C)O[C@@H]21 | 3.2 µM | 1.8 µM | –
C=C1C(=O)O[C@H]2[C@H]1CC/C(C(=O)N(CCC)CCC)=C\CC[C@@]1(C)O[C@@H]21 | 2 µM | 1 µM | –
C=C1C(=O)O[C@H]2[C@H]1CC/C(COC(=O)CCCCCC)=C\CC[C@@]1(C)O[C@@H]21 | 5.8 µM | 6 µM | –
C=C1C(=O)O[C@H]2[C@H]1CC/C(C(=O)OC)=C\CC[C@@]1(C)O[C@@H]21 | 5.4 µM | 4.9 µM | –
C=C1C(=O)O[C@H]2[C@H]1CC/C(C(=O)OCc1ccc(C(F)(F)F)cc1)=C\CC[C@@]1(C)O[C@@H]21 | 2 µM | 1 µM | –
C=C1C(=O)O[C@H]2[C@H]1CC/C(C(=O)N1CCN(C(=O)/C3=C/CC[C@@]4(C)O[C@H]4[C@H]4OC(=O)C(=C)[C@@H]4CC3)CC1)=C\CC[C@@]1(C)O[C@@H]21 | > 50 µM | > 50 µM | –
C=C1C(=O)O[C@H]2[C@H]1CC/C(COCc1ccc(OC)cc1)=C\CC[C@@]1(C)O[C@@H]21 | 1.1 µM | 2.7 µM | –
C=C1C(=O)O[C@H]2[C@H]1CC/C(COC(=O)c1ccc(C#N)cc1)=C\CC[C@@]1(C)O[C@@H]21 | 6.7 µM | 1.7 µM | –
C=C1C(=O)O[C@H]2[C@H]1CC/C(COC(=O)/C=C/C)=C\CC[C@@]1(C)O[C@@H]21 | 5.1 µM | 4.6 µM | –
C=C1C(=O)O[C@H]2[C@H]1CC/C(C(=O)N1CCC(C)CC1)=C\CC[C@@]1(C)O[C@@H]21 | 1.6 µM | 6.3 µM | –
C=C1C(=O)O[C@H]2[C@H]1CC/C(C(=O)N(CCCC)CCCC)=C\CC[C@@]1(C)O[C@@H]21 | 1.4 µM | 3.7 µM | –
C=C1C(=O)O[C@H]2[C@H]1CC/C(C(=O)N1CCN(C(=O)OC(C)(C)C)CC1)=C\CC[C@@]1(C)O[C@@H]21 | 1.7 µM | 5.1 µM | –

SMILES | IC50 [1] | IC50 [2] | further results
C=C1C(=O)O[C@H]2[C@H]1CC/C(C(=O)N(C)C)=C\CC[C@@]1(C)O[C@@H]21 | 6.1 µM | 1.3 µM | –
C=C1C(=O)O[C@H]2[C@H]1CC/C(COC(=O)c1ccc(OC)cc1)=C\CC[C@@]1(C)O[C@@H]21 | 5.3 µM | 2.1 µM | –
C=C1C(=O)O[C@H]2[C@H]1CC/C(C(=O)N1CCC(c3ccccc3)CC1)=C\CC[C@@]1(C)O[C@@H]21 | 2.2 µM | 2.2 µM | –
C=C1C(=O)O[C@H]2[C@H]1CC/C(COCc1ccc(C(F)(F)F)cc1)=C\CC[C@@]1(C)O[C@@H]21 | 2.4 µM | 1.9 µM | –
C=C1C(=O)O[C@H]2[C@H]1CC/C(C=O)=C\CC[C@@]1(C)O[C@@H]21 | 6.3 µM | 9.9 µM | –
C=C1C(=O)O[C@@H]2C3O[C@]3(C)CC/C=C(\C)CC[C@@H]12 (some centres undefined) | 3.5 µM | 4.2 µM | viability at 10 µM [3]: 95.2%; Activity [4]: 1.81%; Activity [5]: 0.327%; Activity [6]: 0.413%; Activity [7]: 13.1%; Activity [8]: 0.336%; viability at 20 µM [9]: 84.7%; Activity [10]: 4.08%
C=C1C(=O)O[C@H]2[C@H]1CC/C(C(=O)N1CCNCC1)=C\CC[C@@]1(C)O[C@@H]21 | > 50 µM | > 50 µM | –
C=C1C(=O)O[C@H]2[C@H]1CC/C(COC(C)=O)=C\CC[C@@]1(C)O[C@@H]21 | 6.3 µM | 2.8 µM | –
C=C1C(=O)O[C@H]2[C@H]1CC/C(c1nc3ccccc3s1)=C\CC[C@@]1(C)O[C@@H]21 | 5.1 µM | 8.2 µM | –
C=C1C(=O)O[C@H]2[C@H]1CC/C(COC(=O)c1ccccc1C#N)=C\CC[C@@]1(C)O[C@@H]21 | 3.3 µM | 1.2 µM | –
C=C1C(=O)O[C@H]2[C@H]1CC/C(COC(=O)/C=C/c1ccccc1)=C\CC[C@@]1(C)O[C@@H]21 | 0.4 µM | 1.1 µM | viability at 10 µM [3]: 75.6%; Activity [4]: 1.61%; Activity [5]: 1.37%; Activity [6]: 0.381%; Activity [7]: 46.7%; Activity [8]: 0.087%; viability at 20 µM [9]: 51.6%; Activity [10]: 22.7%
C=C1C(=O)O[C@H]2[C@H]1CC/C(C(=O)N(CC)CC)=C\CC[C@@]1(C)O[C@@H]21 | 4.3 µM | 2.7 µM | –
C=C1C(=O)O[C@H]2[C@H]1CC/C(COC(=O)c1ccc(C(F)(F)F)cc1)=C\CC[C@@]1(C)O[C@@H]21 | 4 µM | 2.3 µM | –
C=C1C(=O)O[C@H]2[C@H]1CC/C(C(=O)N1CCCC1)=C\CC[C@@]1(C)O[C@@H]21 | 1.8 µM | 4 µM | –
C=C1C(=O)O[C@H]2[C@H]1CC/C(COC(=O)C1CCCCC1)=C\CC[C@@]1(C)O[C@@H]21 | 8.6 µM | 6.7 µM | –
C=C1C(=O)O[C@H]2[C@H]1CC/C(COCc1ccccc1)=C\CC[C@@]1(C)O[C@@H]21 | 4.8 µM | 3.5 µM | –
C=C1C(=O)O[C@H]2[C@H]1CC/C(COC(=O)c1ccccc1)=C\CC[C@@]1(C)O[C@@H]21 | 3.3 µM | 2.4 µM | –
COc1cccc2c1C(=O)c1c(O)c3c(c(O)c1C2=O)C[C@@](O)(C(=O)CO)C[C@@H]3O[C@H]1C[C@H](N)[C@H](O)[C@H](C)O1.Cl [DOXORUBICIN HYDROCHLORIDE] | 0.08 µM | 0.019 µM | Ratio IC50 [11]: 4
